Source: patent EP0022634A1, “Acylated indole derivatives, processes for their preparation and pharmaceutical compositions and drugs comprising them” (TEIJIN LIMITED, priority 1979, dated 1981)
Values after ≈ are worked out from the molar mass of the structure shown. Like-named read-outs stand apart in the source and are kept apart here.

Tests used:
[1] = test system: platelet aggregation; assay: in vitro platelet aggregation inhibiting activity (sodium arachidonate as aggregating agent); format: cell-based; conditions: guinea pigs PRP, final concentration 0.1 millimole, minimum final concentration whose inhibiting rate exceeded 50 %
Description: The platelet aggregation inhibiting activities in vitro of test drugs including the acylated indole derivatives of this invention were assayed using guinea pigs PRP.
As an aggregating agent, sodium arachidonate having a final concentration of 0.1 millimole was used.
The citrated blood was centrifuged at 1000 rpm for 10 minutes at room temperature, and the supernatant liquid (PRP) was separated.
The resulting PRP was stored at room temperature, and used as early as possible. PRP stored for more than 4 hours was not used.
A compound having a free carboxylic acid as a residue, such as Indomethacin and Ibprofen, was dissolved in O.lM NaHC03 to provide a sodium salt solution having a concentration of 10 mg/ml. The solution was similarly diluted with physiological saline to prepare a solution of a test drug.
The solution was diluted with physiological saline to form a 1mM solution which was used in the test.
50 µℓ of physiological saline and 50 µℓ of the aggregating agent solution were added to 400 µℓ of PRP which had been warmed in a cuvette at 37°C in an aggregometer to aggregate the platelet. The aggregation curve was recorded for 3 minutes by an aggregometer (a product of Bryston Company). The maximum degree of aggregation in this platelet aggregation was defined as the maximum degree of aggregation in the blank.
Then, 50 µℓ of a 1mM solution of sodium arachidonate was added, and the platelet aggregation curve was recorded in the same way as in (1) above. From the curve, the maximum degree of aggregation was calculated, and the inhibiting rate was calculated in accordance with the following equation. Maximum degree of aggregation Inhibiting 100 - in the Ibprofen-added system 100 rate (%) Maximum degree of aggregation in the blank
If these inhibiting rates are not attained, the concentration of the solution of sodium arachidonate is not suitable, and therefore, its concentration should be re-adjusted, and the test shall be performed again.
50 µℓ of the test compound solution was added to 400 µℓ of PRP, and the mixture was pre-incubated in the same way as in(2) above. Then, 50 µℓ of the solution of sodium arachidonate having its concentration adjusted in (2) was added, and the aggregation curve was recorded for 3 minutes. The maximum degree of aggregation of platelet within this period was measured, and the rate of inhibition was calculated from the following equation. […] Maximum degree of aggregation Inhibiting _ 100 - in the drug-added system x 100 rate (%) Maximum degree of aggregation in the blank
For details of the in vitro platelet aggregation inhibiting test, see H. M. Davis, J. Phyllis, K. Paul and W. Terry: Thromb. […] Haemos.

[2] = test system: platelet aggregation; assay: extra vivo platelet aggregation inhibiting activity after oral administration, collagen as aggregating agent; format: in vivo, guinea pigs; conditions: Cavia porcellus
Description: The collagent floating solution made by Hormone Company of west Germany was diluted with physiological saline to a concentration of 100 µg/ml for use in the test.
(§1) The platelet aggregation inhibiting activities extra vivo of drugs sampled at random were examined using guinea pigs.
(§2) The drugs were used dissolved in propylene glycol to a concentration of 1 mg/ml (when the dosage was 1 mg/kg), 10 mg/ml (when the dosage was 10 mg/kg), and 30 mg/ml (when the dosage was 30 mg/kg). The drugs were administered orally to male Hartley guinea pigs (three in a group) having a body weight of 300 to 350 g. Propylene glycol was administered to a control group.
(§3) One hour, or 4 hours after the administration, citrated blood was taken out from the subject by cardiac puncture.
(§4) The guinea pigs were caused to fast overnight before use.
(§5) The inhibiting rate of the test drugs was measured as follows: • 450 µℓ of PRP was put into a cuvette of an aggregometer, and then 50 µℓ of the aggregating agent was added. The aggregation curve was recorded for 3 minutes, and the maximum degree of aggregation was measured. As a blank, the maximum degree of aggregation of PRP of the group of guinea pigs to which propylene glycol had been administered was measured. The rate of inhibition was calculated from the following equation. [formula]
(§6) As the aggregating agent, 0.03 mM (final concentration sodium arachidonate and 5 µg/ml (final concentration) collagen floating solution were used.
For details of the extra vivo platelet aggregation inhibiting test, see Davis. H. M., Phyllis, J., Paul, K and Terry, W.: Thromb. Res. 11, 217-226 (1977) and Anderson R. E. and Foulks J. G.: Thromb. Haemos. 36, 343-359 (1976).

[3] = test system: platelet aggregation; assay: extra vivo platelet aggregation inhibiting activity after oral administration, sodium arachidonate as aggregating agent; format: in vivo, guinea pigs; conditions: Cavia porcellus, 0.03 mM sodium arachidonate; for inhibition at 10 mg/kg: oral dosage 10 mg/kg; for inhibition at 1 mg/kg: oral dosage 1 mg/kg
Description: as §1, §2, §3, §4, §5, §6
For details of the extra vivo platelet aggregation inhibiting test, see Davis. H. M., Phyllis, J., Paul, K and Terry, W.: Thromb. […] Haemos.

[4] = Cavia porcellus, Platelet, read-out: IC50
[5] = po, 1 h, read-out: Rate of inhibition of platelet aggregation, Collagen, After 1 hour
[6] = po, 4 h, read-out: Rate of inhibition of platelet aggregation, Collagen, After 4 hours
[7] = blood taken 1 hour after administration, read-out: Rate of inhibition of platelet aggregation, Sodium arachidonate, After 1 hour
[8] = blood taken 4 hours after administration, read-out: Rate of inhibition of platelet aggregation, Sodium arachidonate, After 4 hours

Row | Structure (SMILES) | IC50 [1, 4] [mg/L] | inhibition at 10 mg/kg [2, 5] [%] | inhibition at 10 mg/kg [2, 6] [%] | inhibition at 10 mg/kg [3, 7] [%] | inhibition at 10 mg/kg [3, 8] [%] | other results
1 | COC[C@H](C)n1c(C)c(C(=O)c2ccccc2)c2ccccc21 [(347), 3-benzoyl-1-[1-methoxy-2(S)-propyl)-2-methylindole] | 0.075 (≈ 0.244 µM) |  |  |  |  | 
2 | Cc1c(C(=O)c2ccccc2)c2ccccc2n1C(C)CCO (stereo not drawn) [(105), 3-Benzoyl-l-(4-hydroxy-2-butyl)-2-methylindole] | 0.075 (≈ 0.244 µM) | 100 | 100 | 100 | 100 | 
3 | CCOCC(CC)n1c(C)c(C(=O)c2ccccc2)c2ccccc21 (stereo not shown) [(312), 3-Benzoyl-1-(1-ethoxy-2-butyl)-2-methylindole] | 0.25 (≈ 0.745 µM) | 100 | 100 | 100 | 100 | 
4 | Cc1c(C(=O)c2ccccc2)c2ccccc2n1[C@H](C)CO [(135), 3-Benzoyl-1-[1-hydroxy-2(R)-propyl]-2-methylindole] | 0.025 (≈ 0.0852 µM) |  |  |  |  | 
5 | CCSCCC(C)n1c(C)c(C(=O)c2ccccc2)c2ccccc21 (stereo not shown) [(409), 3-Benzoyl-1-(4-ethylthio-2-butyl)-2-methylindole] | 0.25 (≈ 0.711 µM) | 100 | 100 | 100 | 48.8 | 
6 | CC(=O)C(C)n1c(C)c(C(=O)c2ccccc2)c2ccccc21 (stereo not drawn) [(800), 3-Benzoyl-2-methyl-l-(3-oxo-2-butyl)indole] | 0.05 to 0.1 (≈ 0.164 to 0.327 µM) | 100 | 48.4 | 100 | 66.7 | 
7 | COCC(C)n1c(C)c(C(=O)c2cccs2)c2ccccc21 (stereo not shown) [(315), 1-(1-Methoxy-2-propyl)-2-methyl-3-thenoylindole] |  |  |  |  |  | IC50 [1]: 0.01 to 0.1 mg/L
8 | CCC(COC(C)=O)n1c(C)c(C(=O)c2ccccc2)c2ccccc21 (stereo not shown) [(205), 1-(1-acetoxy-2-butyl)-3-benzoyl-2-methylindole] | 0.1 (≈ 0.286 µM) | 100 | 93.8 | 100 | 85.3 | 
9 | COCC(C)n1c(C)c(C(=O)c2ccccc2)c2cc(OC)ccc21 (stereo not shown) [(318), 3-Benzoyl-5-methoxy-1-(1-methoxy-2-propyl)-2-methylindole] | 0.75 (≈ 2.22 µM) | 97.7 | 0.5 | 100 | 14 | 
10 | Cc1c(C(=O)c2ccccc2)c2ccccc2n1C(C)C(=O)O (stereo not shown) [Comparison 1, reference compound] | 50 (≈ 163 µM) |  |  |  |  | 
11 | Cc1c(C(=O)c2ccccc2)c2ccccc2n1[C@@H](C)CO [(136), 3-Benzoyl-1-(1-hydroxy-2(S)-propyl]-2-methylindole] | 0.05 (≈ 0.17 µM) |  |  |  |  | 
12 | Cc1c(C(=O)c2ccccc2)c2ccccc2n1C(C)CCS (stereo not shown) [(423), 3-Benzoyl-1-(4-mercapto-2-butyl)-2-methylindole] |  | 100 | 100 | 100 | 100 | 
13 | Cc1c(C(=O)c2ccccc2)c2ccccc2n1C(C)CCSc1ccccn1 (stereo not drawn) [(414), 3-Benzoyl-2-methyl-l-(4-(2-pyridylthio)-2-butyl]indole] |  |  |  | 100 | 100 | 
14 | CC(=O)OCC(C)n1c(C)c(C(=O)c2ccccc2)c2ccccc21 (stereo not shown) [(200), 1-(1-Acetoxy-2-propyl)-3-benzoyl-2-methylindole] | 0.075 (≈ 0.224 µM) |  |  |  |  | inhibition at 1 mg/kg [3, 7]: 90%; inhibition at 1 mg/kg [3, 8]: 91.8%
15 | Cc1c(C(=O)c2ccccc2)c2ccccc2n1C(C)CSc1ccccn1 (stereo not shown) [(405), 3-Benzoyl-2 methyl-1-[1-(2-pyridylthio)-2-propyl]indole] | 0.5 (≈ 1.29 µM) | 100 | 100 | 100 | 100 | 
16 | Cc1[nH]c2ccccc2c1C(=O)c1ccccc1 [Comparison 2, reference compound] | 5 (≈ 21.3 µM) |  |  |  |  | 
17 | CCSCC(CC)n1c(C)c(C(=O)c2ccccc2)c2ccccc21 (stereo not shown) [(417), 3-Benzoyl-1-(1-ethylthio-2-butyl)-2-methylindole] |  | 100 | 100 | 100 | 37 | 
18 | COCCC(C)n1c(C)c(C(=O)c2ccccc2)c2ccccc21 (stereo not shown) [(306), 3-Benzoyl-1-(4-methoxy-2-butyl)-2-methylindole] | 0.25 (≈ 0.778 µM) | 100 | 100 | 100 | 100 | 
19 | COc1ccc2c(c1)c(C(=O)c1ccccc1)c(C)n2C(C)CO (stereo not shown) [(116), 3-benzoyl-1-(1-hydroxy-2-propyl)-5-methoxy-2-methylindole] | 0.5 (≈ 1.55 µM) | 100 | 0 | 100 | 0.7 | 
20 | CCSCC(C)n1c(C)c(C(=O)c2ccccc2)c2ccccc21 (stereo not shown) [(400), 3-Benzoyl-1-(1-ethylthio-2-propyl)-2-methylindole] | 0.5 (≈ 1.48 µM) | 100 | 100 | 100 | 67.4 | 
21 | CCC(C)n1c(C)c(C(=O)c2ccccc2)c2ccccc21 (stereo not shown) [(701), 3-Benzoyl-1-(2-butyl)-2-methylindole] |  |  |  | 100 | 100 | 
22 | COCCn1c(C)c(C(=O)c2ccccc2)c2ccccc21 [Comparison 4, reference compound] |  | 38 | 7.6 | 45.5 | 7.1 | 
23 | CSCC(C)n1c(C)c(C(=O)c2ccccc2)c2ccccc21 (stereo not shown) [(402), 3-Benzoyl-2-methyl-1-(1-methylthio-2-propyl)-indole] | 0.075 (≈ 0.232 µM) |  |  |  |  | 
24 | Cc1[nH]c2ccccc2c1C(=O)c1ccc(Cl)cc1 [Comparison 6, reference compound] |  |  |  | 12.3 | 6 | inhibition at 10 mg/kg ([2]; oral dosage 10 mg/kg, 5 µg/ml collagen floating solution, blood taken 1 hour after administration, read-out: Rate of inhibition of platelet aggregation, Collagen, After 1 hour): 36%; inhibition at 10 mg/kg ([2]; oral dosage 10 mg/kg, 5 µg/ml collagen floating solution, blood taken 4 hours after administration, read-out: Rate of inhibition of platelet aggregation, Collagen, After 4 hours): 28.9%
25 | Cc1c(C(=O)c2ccccc2)c2ccccc2n1C(C)C[S+]([O-])c1ccccc1 (stereo not shown) [(501), 1-(1-Benzenesulfinyl-2-propyl)-3-benzoyl-2-methylindole] |  | 100 | 100 | 100 | 100 | 
26 | COC[C@@H](C)n1c(C)c(C(=O)c2ccccc2)c2ccccc21 [(346), 3-Benzoyl-1-[1-methoxy-2(R)-propyl]-2-methylindole] | 0.05 (≈ 0.163 µM) |  |  |  |  | 
